Experimental data reported in EP0059980A1, “Use of an antimicrobial preservative in ophtalmics and the care of contact lenses” (NATEC Institut für naturwissenschaftlich- technische …, priority 1981, dated 1982).
≈ marks a conversion by molar mass, not a printed value. Like-named read-outs stand apart in the source and are kept apart here. Blank lines part the entries; values can stand above or below the compound they belong to.

Legend:
Aspergillus fumigatus = experiment: Minimal inhibitory concentration (MIC), turbidity method in peptone broth; format: cell-based
Source text: (§1) Die antimikrobiellen Wirkungsspektren eines erfindungsgemäß vorgeschlagenen Wirkstoffes, nämlich des Laurinsäurecholinesterchlorids, und im Vergleich dazu von den homologen Essigsäure-, Capronsäure- und Palmitinsäurecholinesterchloriden sowie von den bekannten Konservierungsmitteln Adamantylcarbonsäurecholinesterchlorid und Chlor- 'hexidin-diacetat wurden durch Bestimmung der minimalen Hemmkonzentration nach der Trübungsmethode in Pepton-Nährlösung bei einem pH von 7,0 festgestellt. Diese Methode ist von K.H. Wallhäußer und H. Schmidt in "Sterilisation, Desinfektion, Konservierung, Chemotherapie", Stuttgart (1967), Seite 420-421 beschrieben. Die Ergebnisse sind in Tabelle 1 zusammengestellt.

[1] = system: Bacillus cereus ATCC 11778; experiment: as above; format: cell-based
Source text: as §1

[2] = system: Bacillus subtilis ATCC 6633; experiment: as above; format: cell-based
Source text: as §1

[3] = system: Candida albicans ATCC 10231; experiment: as above; format: cell-based
Source text: as §1

E. coli ATCC 11229 = experiment: as above; format: cell-based; details: Escherichia coli
Source text: as §1

Enterobacter aerogenes = experiment: as above; format: cell-based; details: Klebsiella aerogenes
Source text: as §1

Fusorium oxysporum = experiment: as above; format: cell-based
Source text: as §1

Paecilomyces Ehrlich = experiment: as above; format: cell-based
Source text: as §1

Paecilomyces variati = experiment: as above; format: cell-based
Source text: as §1

Proteus vulgaris = experiment: as above; format: cell-based
Source text: as §1

Pseudomonas fluorescens = experiment: as above; format: cell-based; details: Pepton-Nährlösung, pH 7,0
Source text: as §1

[4] = system: Staphylococcus aureus ATCC 25923; experiment: as above; format: cell-based
Source text: as §1

[5] = system: Staphylococcus epidermis ATCC 12228; experiment: as above; format: cell-based
Source text: as §1

Streptococcus pyogenes = experiment: as above; format: cell-based
Source text: as §1

Pseudomonas aeruginosa = experiment: as above; format: cell-based; details: Pepton-Nährlösung, pH 7,0
Source text: as §1, with “Diese Methode ist von K.H. Wallhäußer und H. Schmidt in "Sterilisation, Desinfektion, Konservierung, Chemotherapie", Stuttgart (1967), Seite 420-421 beschrieben.” left out

Acute oral toxicity test = experiment: Acute oral toxicity test; parameters: species or system Mäuse; details: mouse, in vivo, black mice, mean (range in brackets), read-out: oraler LD 50-Wert
Source text: Anhand des Laurinsäurecholinesterchlorids als Beispiel für die erfindungsgemäß verwendeten Laurinsäurecholinestersalze wurde ferner eine akute orale Toxizitätsprüfung durchgeführt, wobei schwarze Mäuse als Versuchstiere dienten. Dabei wurde gefunden, daß der orale LD 50-Wert im Mittel bei 3,15 (2,66 bis 3,74) g/kg Tiergewicht liegt.

Ratten = experiment: Subacute oral toxicity test; format: in vivo; details: rats, 20 and 50 mg per kg body weight
[6] = system: Albino-Meerschweinchen (Pirlbright white); experiment: Direct skin irritation test, ointment applied daily for one week; format: in vivo; details: 200 ppm in Vaseline ointment base, 12 guinea pigs, daily for one week on shorn flank
Protocol: (§2) Ferner wurde die Haut- und Schleimhautverträglichkeit von Laurinsäurecholinesterchlorid an Albino-Meerschweinchen aus einem leicht allergisierbaren Stamm (Pirlbright white) von 400 bis 700 g Gewicht und bei kleinwüchsigen Kaninchen von 1,5 bis 3 kg Gewicht geprüft. Die Tiere erhielten Standarddiät und Wasser nach Belieben. Die Raumtemperatur betrug etwa 20 °C, die Luftfeuchtigkeit etwa 50 %, die tägliche Belichtungsdauer 12 Stunden.
Die Prüfsubstanz wurde in einer Salbengrundlage aus Vaseline mit 200 ppm des Wirkstoffs auf direkte Hautreizung getestet. Bei 12 Meerschweinchen wurde die Präparation eine Woche lang täglich auf einem kurz geschorenen Bezirk an der Flanke aufgetragen und etwa 30 Sekunden eingerieben.

[7] = system: Albino-Meerschweinchen (Pirlbright white); experiment: Skin sensitisation test (induction and provocation phase); format: in vivo; details: 200 ppm in Vaseline; three weeks induction, 5 days pause, 3 days provocation; checked after 24 h, 2 and 3 days
Protocol: as §2
Daraufhin wurde bei den gleichen Tieren die lokale Anwendung der Prüfsubstanz auf drei Wochen ausgedehnt (Induktionsphase). Nach anschließender 5-tägiger Pause wurde die Prüfsubstanz an drei aufeinanderfolgenden Tagen auf einem nicht vorbehandelten kontralateralen kurzgeschorenen Kontrollbezirk eingerieben (Provokationsphase),.
Aufgrund dieser Versuche ergab sich kein Hinweis auf sensibilisierende Eigenschaften des Laurinsäurecholinesterchlorids.

Kaninchenauge = experiment: Ocular irritation test according to Draize (mucous membrane tolerance); format: in vivo, Kaninchen; details: 2.000 ppm in 0,9 % saline, 0,1 ml in conjunctival sac, eight rabbits
Protocol: as §2
Die Prüfung auf Schleimhautverträglichkeit wurde am Kaninchenauge vorgenommen. Die Prüfsubstanz wurde als Lösung von 2.000 ppm Laurinsäurecholinesterchlorid in 0,9 %iger wäßriger Kochsalzlösung im okkulären Reizwirkungstest nach Draize an acht Kaninchen auf Schleimhautverträglichkeit in der folgenden Weise geprüft.
0,1 ml der Testlösung wurden im Konjunktivalsack eines Tierauges unter Schließung von Ober- und Unterlid eingebracht. Man ließ die Lösung eine Minute lang einwirken. Das andere Auge wurde zur Kontrolle in gleicher Weise mit destilliertem Wasser behandelt.
Eine Minute nach der Applikation wurden bei der Hälfte der Tiere die behandelten Augen eine Minute lang mit '10 bis 20 ml lauwarmer physiologischer Kochsalzlösung naChgespült..Die Augen wurden anschließend bei allen behandelten Tieren geprüft.

[8] = Hydrolytic stability of aqueous solution kept boiling; format: physicochemical; details: 5 % aqueous solution
Source text: Die erfindungsgemäß vorgeschlagenen Laurinsäurecholinestersalze besitzen auch die erforderliche Stabilität und Beständigkeit. So wurde eine 5 %ige wäßrige Laurinsäurecholinesterchloridlösung 8 Stunden am Sieden gehalten. Danach wurde eine nur unwesentliche Zunahme des Säuregehalts der Trockensubstanz von 2,5 auf 3,9 % festgestellt. Demnach kann unter den Bedingungen, unter denen die erfindungsgemäß vorgeschlagenen Wirkstoffe normaler; weise als Konservierungsmittel eingesetzt werden, eine hydrolytische Spaltung des Wirkstoffes praktisch ausgeschlossen werden.

[9] = system: Bakterien, Hefen und Schimmelpilze; experiment: Preservative challenge test according to USP XIX; format: cell-based; details: 0,01 % in sterile aqueous solution; criteria of Wallhäußer for category I products, up to 28 days
Source text: Als Beispiel für die erfindungsgemäß vorgesehenen Konservierungsmittel wurde Laurinsäurecholinesterchlorid einem Konservierungsbelastungstest nach der Vorschrift USP XIX unterworfen und mit bekannten Konservierungsmitteln, die in Kontaktlinsen-Pflegelösungen eingesetzt werden und dem gleichen Test unterworfen wurden, verglichen.. Die USP XIX schreibt vor, daß bei einem entsprechenden Belastungstest, bei dem man von einer Ausgangskeimzahl von […] ausgeht, ein'e Verminderung der Keimzahl innerhalb von 14 Tagen um 99,9 % bei den zugesetzten Bakterien erreicht wird und daß sich die zugesetzten Pilzsporen und Hefen innerhalb der gleichen Zeit nicht signifikant vermehren.
Um die antimikrobielle Wirkung der verschiedenen untersuchten Konservierungsmittel besser vergleichen zu können, wurden die Belastungstest bei jeweils gleicher Wirkstoffkonzentration (0,01 % in steriler wäßriger Lösung) und bei gleicher Ausgangsbelastung des jeweils eingesetzten Stammes durchgeführt. In den Tabellen 2 bis 5 sind die Keimzahlen nach jeweils 2 und 10 Minuten sowie nach 1 Stunde, 2 und 24 Stunden angegeben, in den Tabellen 6 bis 9 sind die Ergebnisse nach 1 Tag, 7, 14, 21 und 28 Tagen festgehalten, da die Keimzahlen während der weiteren Laufzeit bis zum 28. Tag bei guter Konservierung nicht mehr ansteigen dürfen.
Wie aus der Monographie von K.H. Wallhäußer, Sterilisation, Desinfektion, Konservierung, 2. […]

[10] = Hydrolysis in presence of pancreatic juice under simulated physiological conditions
Protocol: (§3) Ferner wurde eine 1 %ige wäßrige Laurinsäurecholinesterchloridlösung in Gegenwart von Pankreassaft simulierten physiologischen Bedingungen (38°C) ausgesetzt und nach 1 Stunde und nach 24 Stunden Proben gezogen und auf entstandene freie Fettsäuren untersucht. Dazu wurden die Proben mit Petroläther extrahiert und im Extrakt ' die Fettsäuren mikroanalytisch bestimmt.

[11] = pancreatic juice
Protocol: as §3

[12] = Candida albicans, ATCC10231, pH 7, read-out: MIC-Werte
[13] = ATCC11229, pH 7, read-out: MIC-Werte
[14] = Paecilomyces, pH 7, read-out: MIC-Werte
[15] = Staphylococcus aureus, ATCC25923, pH 7, read-out: MIC-Werte
[16] = Pepton-Nährlösung, pH 7,0, read-out: MIC-Werte
[17] = ATCC10231, Candida albicans ATCC 10231, Pepton-Nährlösung, pH 7,0, read-out: MIC-Werte
[18] = ATCC11229, E. coli ATCC 11229, Pepton-Nährlösung, pH 7,0, read-out: MIC-Werte
[19] = Fusorium oxysporum, Pepton-Nährlösung, pH 7,0, read-out: MIC-Werte
[20] = ATCC25923, Staphylococcus aureus ATCC 25923, Pepton-Nährlösung, pH 7,0, read-out: MIC-Werte

Compound: CCCCCCCCCCCC(=O)OCC[N+](C)(C)C [Laurinsäurecholinesterchlorid]
MIC (Aspergillus fumigatus; pH 7, read-out: MIC-Werte): 10 µg/mL | MIC ([1]; Bacillus cereus, ATCC11778, pH 7, read-out: MIC-Werte): 3.13 µg/mL | MIC ([2]; Bacillus subtilis, ATCC6633, pH 7, read-out: MIC-Werte): 0.78 µg/mL | MIC [3, 12]: 10 µg/mL | MIC (E. coli ATCC 11229; [13]): 10 µg/mL | MIC (Enterobacter aerogenes; pH 7, read-out: MIC-Werte): 100 µg/mL | MIC (Fusorium oxysporum; pH 7, read-out: MIC-Werte): 3.13 µg/mL | MIC (Paecilomyces Ehrlich; [14]): 0.78 µg/mL | MIC (Paecilomyces variati; [14]): 0.78 µg/mL | MIC (Proteus vulgaris; pH 7, read-out: MIC-Werte): 200 µg/mL | MIC (Pseudomonas fluorescens): 2.5 µg/mL | MIC [4, 15]: 2.5 µg/mL | MIC ([5]; Staphylococcus, ATCC12228, pH 7, read-out: MIC-Werte): 0.78 µg/mL | MIC (Streptococcus pyogenes; pH 7, read-out: MIC-Werte): 0.16 µg/mL | MIC (Pseudomonas aeruginosa): 20 µg/mL | LD50 (Acute oral toxicity test): 3150 mg/kg | Wirkungen bei subakuter oraler Toxizitätsprüfung (Ratten): keine Wirkungen | direkte Hautreizung (Hautreaktionen) [6]: keine Hautreakticnen | Reaktion im Kontrollbezirk (Sensibilisierung) [7]: in keinem Falle eine Reaktion | Reaktion im Sinne von Rötung, Schwellung, Sekretion oder Hornhautveränderung (Kaninchenauge; 1 min): In keinem Falle kam es zu einer Reaktion | spontane Abwehrreaktionen (Kaninchenauge): keine spontanen Abwehrreaktionen | Säuregehalt der Trockensubstanz ([8]; after 8 hours boiling): 3,9% | Säuregehalt der Trockensubstanz ([8]; before boiling): 2,5% | Bedingungen für ausreichende Konservierung (Abfall der Keimzahl) [9]: weit übertroffen | Hydrolyse im Kontrollversuch ohne Pankreassaft ([10]; control without pancreatic juice, 38°C): keine Hydrolyse | metabolised at 1 h ([10]; pancreatic juice): 1.5% | metabolised at 24 h ([10]; pancreatic juice): 2.5%

Compound: C[N+](C)(C)CCOC(=O)C12CC3CC(CC(C3)C1)C2 [Adamantylcarbonsäurecholinesterchlorid]
MIC (Aspergillus fumigatus; [16]): > 400 µg/mL | MIC [3, 17]: > 400 µg/mL | MIC (E. coli ATCC 11229; [18]): > 400 µg/mL | MIC (Fusorium oxysporum; [19]): > 400 µg/mL | MIC [4, 20]: 200 µg/mL | MIC (Streptococcus pyogenes; [16]): 20 µg/mL | MIC (Pseudomonas aeruginosa): > 400 µg/mL

Abbauquote [11]: 13,8%
Compound: CCCCCCCC(=O)OCC(O)CO (stereo not drawn) [Glycerinmonocaprylat]

MIC (Aspergillus fumigatus; [16]): 12.5 µg/mL (≈ 24.7 µM) | MIC ([1]; ATCC11778, Bacillus cereus ATCC 11778, Pepton-Nährlösung, pH 7,0, read-out: MIC-Werte): 0.78 µg/mL (≈ 1.54 µM) | MIC ([2]; ATCC6633, Bacillus subtilis ATCC 6633, Pepton-Nährlösung, pH 7,0, read-out: MIC-Werte): 0.78 µg/mL (≈ 1.54 µM) | MIC [3, 17]: 3.13 µg/mL (≈ 6.19 µM) | MIC (E. coli ATCC 11229; [18]): 3.13 µg/mL (≈ 6.19 µM) | MIC (Enterobacter aerogenes; Enterobacter aerogenes, Pepton-Nährlösung, pH 7,0, read-out: MIC-Werte): 12.5 µg/mL (≈ 24.7 µM) | MIC (Fusorium oxysporum; [19]): 12.5 µg/mL (≈ 24.7 µM) | MIC (Paecilomyces Ehrlich; Paecilomyces Ehrlich, Pepton-Nährlösung, pH 7,0, read-out: MIC-Werte): 0.78 µg/mL (≈ 1.54 µM) | MIC (Paecilomyces variati; Paecilomyces variati, Pepton-Nährlösung, pH 7,0, read-out: MIC-Werte): 1.56 µg/mL (≈ 3.09 µM) | MIC (Proteus vulgaris; [16]): 50 µg/mL (≈ 98.9 µM) | MIC [4, 20]: 1.56 µg/mL (≈ 3.09 µM) | MIC ([5]; ATCC12228, Staphylococcus epidermis ATCC 12228, Pepton-Nährlösung, pH 7,0, read-out: MIC-Werte): 0.78 µg/mL (≈ 1.54 µM) | MIC (Streptococcus pyogenes; [16]): 0.78 µg/mL (≈ 1.54 µM)
Compound: N=C(NCCCCCCNC(=N)NC(=N)Nc1ccc(Cl)cc1)NC(=N)Nc1ccc(Cl)cc1 [Chlorhexidin-diacetat]

Compound: CCCCCC(=O)OCC[N+](C)(C)C [Capronsäurecholinesterchlorid]
MIC (Aspergillus fumigatus; [16]): > 400 µg/mL | MIC [3, 17]: > 400 µg/mL | MIC (E. coli ATCC 11229; [18]): > 400 µg/mL | MIC (Fusorium oxysporum; [19]): > 400 µg/mL | MIC [4, 20]: > 400 µg/mL | MIC (Streptococcus pyogenes; [16]): 100 µg/mL | MIC (Pseudomonas aeruginosa): > 400 µg/mL

Compound: CC(=O)OCC[N+](C)(C)C [Essigsäurecholinesterchlorid]
MIC (Aspergillus fumigatus; pH 7, read-out: MIC-Werte): > 400 µg/mL | MIC [3, 12]: > 400 µg/mL | MIC (E. coli ATCC 11229; [13]): > 400 µg/mL | MIC (Fusorium oxysporum; [19]): > 400 µg/mL | MIC [4, 15]: > 400 µg/mL | MIC (Streptococcus pyogenes; pH 7, read-out: MIC-Werte): 100 µg/mL | MIC (Pseudomonas aeruginosa): > 400 µg/mL

Compound: CCCCCCCCCCCCCCCC(=O)OCC[N+](C)(C)C [Palmitinsäurecholinesterchlorid]
MIC (Aspergillus fumigatus; [16]): 100 µg/mL | MIC [3, 17]: 100 µg/mL | MIC (E. coli ATCC 11229; [18]): > 400 µg/mL | MIC (Fusorium oxysporum; [19]): > 400 µg/mL | MIC [4, 20]: 2.5 µg/mL | MIC (Streptococcus pyogenes; [16]): 1.25 µg/mL | MIC (Pseudomonas aeruginosa): > 400 µg/mL
